In the NIST ThermoML archive (doi:10.1016/j.fluid.2006.11.005):

What was measured:
[1] = xn = mol fraction of the nth substance listed; settings: 101.33 kPa, Liquid
[2] = 101.33 kPa, Liquid

CCO [ethanol] + ClC(Cl)Cl
[1], x1 = 1
Settings	mass density [kg/m3]
288.15 K	793.721
293.15 K	789.454
298.15 K	785.164
303.15 K	780.853
308.15 K	776.51
313.15 K	772.138

ClC(Cl)Cl [trichloromethane] + c1ccccc1
mass density [kg/m3], [1]
Settings	288.15 K	293.15 K	298.15 K	303.15 K	308.15 K	313.15 K
x1 = 0.1001	939.224	933.584	927.935	922.271	916.586	910.883
x1 = 0.2	995.529	989.568	983.589	977.59	971.567	965.527
x1 = 0.3072	1057.3	1050.96	1044.61	1038.23	1031.82	1025.38
x1 = 0.3995	1111.96	1105.29	1098.58	1091.85	1085.08	1078.27
x1 = 0.4997	1172.45	1165.38	1158.28	1151.15	1143.98	1136.78
x1 = 0.6	1234.48	1226.99	1219.47	1211.92	1204.33	1196.74
x1 = 0.6652	1275.68	1267.9	1260.09	1252.24	1244.34	1236.41
x1 = 0.7991	1362.32	1353.91	1345.46	1336.97	1328.42	1319.82
x1 = 0.8009	1363.45	1355.03	1346.58	1338.09	1329.56	1321.04
x1 = 0.9	1429.59	1420.68	1411.71	1402.7	1393.63	1384.52
x1 = 1	1498.08	1488.64	1479.15	1469.61	1460.03	1450.41

c1ccccc1 [benzene] + ClC(Cl)Cl
[1], x2 = 0
Settings	mass density [kg/m3]
288.15 K	884.246
293.15 K	878.918
298.15 K	873.582
303.15 K	868.233
308.15 K	862.871
313.15 K	857.498

CCO [ethanol]
[2]
Settings	mass density [kg/m3]
288.15 K	793.721
293.15 K	789.454
298.15 K	785.164
303.15 K	780.853
308.15 K	776.51
313.15 K	772.138

ClC(Cl)Cl [trichloromethane]
[2]
Settings	mass density [kg/m3]
288.15 K	1498.08
293.15 K	1488.64
298.15 K	1479.15
303.15 K	1469.61
308.15 K	1460.03
313.15 K	1450.41

c1ccccc1 [benzene]
[2]
Settings	mass density [kg/m3]
288.15 K	884.246
293.15 K	878.918
298.15 K	873.582
303.15 K	868.233
308.15 K	862.871
313.15 K	857.498
